According to patent US4749710A, “Immunosuppressive agents” (priority 1985, dated 1988):

Experiments:
[1] = tested on: murine cytotoxic T-lymphocyte responses; assay: cells; format: cell-based; details: for CTL activity (% specific ^51 Cr release): 90:1 effector to target
Excerpt: Immunosuppressive Activity of Vitamin D compounds on cytotoxic T lymphocyte Responses-General Test Description
Cytotoxic thymus-derived lymphocytes (CTL) constitute an important aspect of immune function and, as a result, play a key role in the rejection of grafted cells, tissues and organs. It is, therefore, essential to suppress CTL generation in a clinical situation in which CTL function is antithetical to the desired outcome as, for example, in transplantation. Cytotoxic T-lymphocytes have been studied for several years by many investigators and methods to evaluate CTL responses in vitro are well established.
As described below, CTL responses as affected by Vitamin D derivatives, were studied in vitro using cells from lab animals and human volunteers. Cytotoxic T-lymphocytes were generated from responder lymphoid cells in tissue culture medium during an incubation period of 6 days by exposure to foreign stimulator cells, i.e. from a genetically disparate source. A portion of the resultant effector cells were CTL capable of killing fresh cells related to the stimulator cells employed in the 6 day culture. To detect killing of cells by CTL, fresh target cells were incubated in excess ^51 chromium (as sodium chromate) until they were extensively labelled. Since target cells will retain the internalized radioisotope as long as they are viable but release the label when they are killed, CTL activity was assessed by quantitating the chromium released from target cells after a 4 or 18 hour incubation with CTL. Immunosuppression produced by Vitamin D derivatives was gauged as the ability to inhibit CTL responses during the initial incubation period relative to control cultures to which no Vitamin D derivative was added.
Female BALB/c By and C57BL/6 mice were obtained from Jackson Laboratories and were used between 8 and 10 weeks of age. Mice were given food and water ad libitum and were kept in a 12 hour light and 12 hour dark cycle.
For murine cultures, minimal essential medium with Hank's salts was supplemented to 1 millimolar with sodium pyruvate, to 0.1 millimolar with nonessential amino acids, to 2 millimolar with 1-glutamine, to 10% (v/v) with heat-inactivated fetal bovine serum, to 50 micrograms per ml with gentamicin, and to 1000 milligrams per liter with sodium bicarbonate and was used as tissue culture medium.
Stock solutions of Vitamin D derivatives were made in argon-saturated ethanol at a final concentration of 1×10^-2 molar, were covered with argon before sealing and were stored at -20° C. in the dark. Reduced lighting conditions were always employed when working with compounds. Compounds were diluted in tissue culture medium to 1×10^-4 molar and all subsequent dilutions were done in tissue culture medium containing 1% v/v ethanol. The final dilution into culture vessels was 1:10 thus keeping the vehicle concentration constant at 0.1% while varying the concentration of compound as tabulated in the results. For purposes of control, mixed leukocyte cultures were incubated in medium only (medium control) or in medium containing a final concentration of 0.1% ethanol (vehicle control).
Murine cytotoxic T-lymphocytes were generated in mixed leukocyte cultures by known methods. Specifically, single cell suspensions were prepared from spleens by gentle disruption in balanced salt solution (Hanks' balanced salt solution supplemented to 10%, v/v, with fetal bovine serum). After sedimentation on ice to remove particulate debris, cell suspensions were centrifuged at 400xg and were resuspended in fresh balanced salt solution. Cells to be used as stimulator cells were precluded from proliferating or generating cytotoxic T-lymphocytes by exposure to 1000 rads of gamma irradiation using a ^137 cesium source. […]

[2] = tested on: cytotoxic T-lymphocyte responses (P815 tumor cells); assay: Suppression of murine CTL responses in vivo (mice immunized with P815 cells); parameters: species or system C57BL/6 mice; details: for CTL activity (% specific ^51 Cr release): day 10; for CTL activity (% specific ^51 Cr release) / Inhibition of CTL activity (%): effector to target 10:1
Procedure: General description. The general test considerations are similar to those previously described for the in vitro murine experiments except that stimulator cells and experimental compound were administered to intact laboratory mice. The impact of compound on CTL responses generated in vivo was determined by comparing the resultant CTL activity from test mice to the CTL activity generated in mice which received vehicle only.
Female C57BL/6 mice were used between the ages of 9-12 weeks. Mice were given food and water ad libitum and were kept in a 12-hour light and 12-hour dark cycle.
A balanced salt solution (BSS) was prepared as described for tissue culture medium in the in vitro murine experiments but was additionally supplemented to 0.01 molar with HEPES buffer.
The compound, 22,23-dehydro-1α,25S,26-trihydroxycholecalciferol was dissolved in dimethylsulfoxide at final concentrations of 2 or 4 mg per ml. When working with vitamin D compounds, conditions of reduced lighting were employed.
In vivo regimens. Mice were apportioned at 4 per group and were inoculated intraperitoneally with 3×10^6 allogeneic P815 tumor cells and the resulting CTL activity was assessed 10 days later. Mice were treated by the intraperitoneal route with 25 microliters of test compound dissolved in dimethylsulfoxide or with dimethylsulfoxide only (vehicle control). In test 1, mice were given daily treatments of 50 micrograms of 22,23-dehydro-1α,25S,26-trihydroxycholecalciferol per day starting one day before immunization and continuing until the day before assay. In test 2, mice were treated with 100 micrograms of 22,23-dehydro-1α,25S,26-trihydroxycholecalciferol only twice: on the day before immunization and on the day of immunization.
Assay for CTL activity. Ten days after immunization of mice with P815 cells, single spleen cell suspensions were prepared by passage of spleens through a steel mesh into BSS and were subsequently washed twice with BSS. Further manipulations of spleen cells, labeling of P815 target cells with ^51 Cr, mechanics of the assay, and the calculation of results from the CTL assay are the same as described earlier for the in vitro murine CTL tests. Cytotoxic T lymphocyte activity was determined individually on spleen cells from each animal in each group and the results are expressed as the mean CTL activity (as percent specific ^51 Cr release) of each group±the standard deviation.
Statistical analysis. A student's t-test was to compare the vehicle-treatedgroup to the test group in each test and the resultant p values are shown.

Row | Compound | inhibition at 10 µM ([1]; Mus musculus, T-lymphocyte, Table I, 1 × 10^-5 molar, vs vehicle control, read-out: Inhibition of CTL activity (%)) [%] | inhibition at 1 µM ([1]; Mus musculus, T-lymphocyte, Table I, 1 × 10^-6 molar, vs vehicle control, read-out: Inhibition of CTL activity (%)) [%] | inhibition at 0.1 µM ([1]; Mus musculus, T-lymphocyte, Table I, 1 × 10^-7 molar, vs vehicle control, read-out: Inhibition of CTL activity (%)) [%] | inhibition at 0.01 µM ([1]; Mus musculus, T-lymphocyte, Table I, 1 × 10^-8 molar, vs vehicle control, read-out: Inhibition of CTL activity (%)) [%] | inhibition at 0.001 µM ([1]; Mus musculus, T-lymphocyte, Table I, 1 × 10^-9 molar, vs vehicle control, read-out: Inhibition of CTL activity (%)) [%] | CTL activity (% specific ^51 Cr release) ([1]; Table I, 1 × 10^-5 molar) | CTL activity (% specific ^51 Cr release) ([1]; Table I, 1 × 10^-6 molar) | CTL activity (% specific ^51 Cr release) ([1]; Table I, 1 × 10^-7 molar) | CTL activity (% specific ^51 Cr release) ([1]; Table I, 1 × 10^-8 molar) | CTL activity (% specific ^51 Cr release) ([1]; Table I, 1 × 10^-9 molar) | suppression of murine cytotoxic T-lymphocyte responses (in words) ([1]; in vitro) | reduction in CTL activity in mice (in words) ([2]; both tests) | CTL activity (% specific ^51 Cr release) ([2]; test 1, 50 ug/dose intraperitoneal daily) | Inhibition of CTL activity (%) ([2]; test 1, 50 ug/dose intraperitoneal daily, p < 0.05) | CTL activity (% specific ^51 Cr release) ([2]; test 2, 100 ug/dose intraperitoneal, twice) | Inhibition of CTL activity (%) ([2]; test 2, 100 ug/dose intraperitoneal, twice, p < 0.01)
1 | C=C1/C(=C\C=C2/CCC[C@]3(C)[C@@H]([C@H](C)C[C@H](O)CC(C)(C)O)CC[C@@H]23)C[C@@H](O)C[C@@H]1O [1α,23S,25-(OH)3 --D3, 1α,23S,25-Trihydroxycholecalciferol] | 77 | 59 | 43 | 18 | 0 | 10 | 18 | 25 | 36 | 45 | suppress murine cytotoxic T-lymphocyte responses | – | – | – | – | –
2 | C=C1/C(=C\C=C2/CCC[C@]3(C)[C@@H]([C@H](C)C=CC[C@](C)(O)CO)CC[C@@H]23)C[C@@H](O)C[C@@H]1O [1α,25S,26-(OH)3 --Δ^22 -D3, 1α,25S,26-Trihydroxy-Δ^22-cholecalciferol] | – | – | – | – | – | – | – | – | – | – | – | statistically significant reduction in CTL activity | 13 ± 4 | 58 | 14 ± 2 | 53
